Patent US20240165052A1 (priority 2021, published 2024)

Assays:
[1] = test system: porcine mucosa (mucosa oesophagus); experiment: in vitro permeation of (S)-ketamine, Franz diffusion cell; details: 37° C.
[2] = pH of phosphate buffer (donor medium) with (S)-ketamine HCl or OTF; format: physicochemical
[3] = at 20° C.; cited from earlier work

SMILES: CNC1(c2ccccc2Cl)CCCCC1=O (racemic) [(S)-ketamine, (S)-(±)-2-(2-chlorophenyl)-2-(methylamino)cyclohexan-1-one]
- permeation rate of S-ketamine ([1]; 2.77 mg (S)-ketamine HCl on mucosa, acidic buffer as donor, FIG. 1): lowest permeation rate
- permeation of S-ketamine ([1]; 2.77 mg (S)-ketamine HCl on mucosa, neutral buffer as donor, FIG. 1): best
- permeation rate of S-ketamine ([1]; 0.287 cm^2 OTF formulation 1 + 70 μL acidic buffer, FIG. 2): lowest permeation rate
- permeation of S-ketamine ([1]; 0.287 cm^2 OTF formulation 1 + 70 μL alkaline buffer, FIG. 2): best

SMILES: CN[C@]1(c2ccccc2Cl)CCCCC1=O.Cl [(S)-ketamine HCl]
- Buffer + (S)-ketamine HCl pH at 22° C. ([2]; acidic buffer (pH 4.99 at 22° C.)): 4.92
- Buffer + (S)-ketamine HCl pH at 22° C. ([2]; alkaline buffer (pH 8.33 at 22° C.)): 7.81
- Buffer + (S)-ketamine HCl pH at 22° C. ([2]; neutral buffer (pH 7.46 at 22° C.)): 6.64

SMILES: NC(CO)(CO)CO [TRIS, tris(hydroxymethyl)aminomethane]
- pKs [3]: 8.2
